Data from patent US20050014751A1, “Use of n-acyl homoserine lactones for the treatment of insulitis” (priority 2001, published 2005).

Experiments:
diabetes in NOD mice = test: Alleviation of diabetes in NOD mice (incidence of diabetes, Uristix); type: in vivo; conditions: above 6 mMol glucose/l = diabetes
Procedure: The ability of the lead compound (OdDHL) to alleviate diabetes in NOD mice was determined by treating the mice 3 times per week for 4 weeks at 30 mg/kg as above. DMSO and OHHL were used as controls.
Diabetes was diagnosed using Uristix and a level of above 6 mMol glucose/I was taken to indicate the presence of diabetes.

murine splenocytes = test: ConA mitogen-stimulated proliferation of murine splenocytes; type: cell-based, BALB/c mice; conditions: ConA 1 μg/ml, 100,000 spleen cells, 1 mM to 0.1 μM
Procedure: The concanavalin A (ConA) cell proliferation assay was used to assess the effect of homoserine lactone (HSL) compounds on T-cell activation and proliferation. Proliferation was assessed by the incorporation of [^3H]-thymidine into DNA. Eight-week-old female BALB/c mice were obtained from Harlan (Bicester, Oxon, UK) and given food and water ad libitum. Splenocyte suspensions were prepared by removing the spleens and placing them into. RPMI 1640 medium. The spleens were forced through 70-μm-pore-size wire gauzes using the plunger from a 5-ml syringe to produce a single cell suspension. The cells were pelleted by centrifugation, and erythrocytes were lysed with 0.017M Tris, 0.144M ammonium chloride buffer, pH 7.2. Leucocytes were washed twice with RPMI 1640 medium with 2% (vol/vol) foetal calf serum (FCS) and resuspended in complete cell culture medium (CTCM) consisting of RPMI 1640 medium with 5% FCS, 2 mM L-glutamine, and 5×10^−5 M 2-mercaptoethanol. […] After the addition of 25 μl of MicroScint-O (Packard) to each well the filters were counted with the Packard TopCount scintillation counter. […]
(§1) In the cell culture assays the number of cells used (mouse splenocytes and human PBMC) was initially optimised to 100,000 cells per well. The optimal dose of ConA of 1 μg/ml used in the cell proliferation assays was determined from ConA titration curves. […]

human PBMC = test: ConA mitogen-stimulated proliferation of human PBMC; type: cell-based; conditions: ConA 1 μg/ml, 100,000 PBMC
Procedure: Blood specimens were obtained with consent from healthy human volunteers. Human peripheral blood mononuclear cells (PBMC) were isolated from heparinised whole blood by buoyant density centrifugation over Histopaque 1077 (Sigma, Poole, UK) at 600 g for 20 minutes. PBMC harvested from the ‘buffy’ layers were washed twice with RPMI 1640 medium and resuspended in CTCM. HSL compounds were tested at similar dilutions as for murine splenocytes in 200 μl of CTCM, containing 1 μg/ml of ConA and 100,000 PBMC. Human PBMC were incubated for 48 h at 37° C. in 5% CO2-air, followed by pulsing with 0.25 μCi [^3H]-thymidine (see above). After a further incubation of 24 h cells were harvested onto fibreglass filters and then counted in the presence of MicroScint-O with the Packard TopCount.
Concanavalin induced cell proliferation of human peripheral blood mononuclear cells (PBMC) was tracked, as described in I above, by a measurement of counts per minute using the scintillation counter. The inhibitory effect of an HSL compound being tested on cell proliferation was indicated by a reduction in counts per minute. […]
as §1

TNF-alpha production = TNF-alpha production from LPS-stimulated human PBMC; type: cell-based
Procedure: Bacterial lipopolysaccharide (LPS) stimulates the production of a variety of cytokines, including TNF-alpha, from human PBMC; these cytokines in turn influence the development of T cells, supporting a T helper 1 conducive milieu. Human PBMC prepared from whole blood by buoyant density centrifugation were resuspended in CTCM. HSL compounds were again tested at similar dilutions as for murine splenocytes in 200 μl of CTCM, containing 5×10^−5 μg/ml LPS Escherichia coli strain 055:B5 (Sigma, Poole, UK) and 100,000 PBMC. Following incubation for 24 h at 37° C. in 5% CO2-air, the cell culture supernatants were collected and tested for TNF-alpha levels by ‘sandwich’ ELISA. Briefly, 96-well Nunc MaxiSorp (Life Technologies, Paisley, UK) plates were coated with 50 μl of a 2 μg/ml solution of mouse anti-human TNF-alpha monoclonal antibody (Pharmingen, UK) in 0.05 M carbonate/bicarbonate buffer, pH 9.6 overnight at 4° C. After washing the plates three times with PBS-Tween, which contained phosphate buffered saline (PBS) with 0.5% (vol/vol) Tween 20 (Sigma, Poole, UK), the plates were blocked with 1% (wt/vol) bovine serum albumin (BSA) (Sigma, Poole, UK) at room temperature for 2 h. […] Following four washes, the bound biotinylated antibody was detected with 50 μl of a 1:1,000 dilution of Streptavidin-peroxidase (Pharmingen, UK). […] The enzyme reaction was stopped with 50 μl of 2.5 M H2SO4 after an incubation of 10 minutes at room temperature and the development was read at 450 nm with a spectrophotometric 96-well plate reader (Dynex). […]
Similar studies were carried out using, as the HSL compounds, N-(12-bromo-3-oxododecanoyl)-L-homoserine lactone (12BrOdDHL) and N-(12-hydroxy-3-oxododecanoyl)-L-homoserine lactone (12hydroxyOdDHL) and the plots for these are shown in FIG. 9. […] The IC50 value for dexamethasone was determined to be 500.
as §1

SMILES: CCCC(=O)CC(=O)N[C@H]1CCOC1=O [OHHL, N-(3-oxohexanoyl)-L-homoserine lactone, reference compound]
- incidence of diabetes (diabetes in NOD mice; Week of Experiment 20, 30 mg/kg 3 times per week for 4 weeks): 7/10
- incidence of diabetes (diabetes in NOD mice; Week of Experiment 30, 30 mg/kg 3 times per week for 4 weeks, week 30 of experiment): 12/20

SMILES: CCCCCC(=O)CC(=O)N[C@H]1CCOC1=O [OOHL, N-(3-oxooctanoyl)-L-homoserine lactone, reference compound]
- inhibition of splenocyte proliferation ([3H]-thymidine cpm, FIG. 6) (murine splenocytes): failed to inhibit proliferation

SMILES: CCCCCCCCCCCC(=O)CC(=O)N[C@H]1CCOC1=O [OtDHL, N-(3-oxotetradecanoyl)-L-homoserine lactone]
- inhibition of proliferation of human PBMC ([3H]-thymidine cpm, FIG. 7) (human PBMC): inhibited proliferation
- inhibition of TNF-α secretion (FIG. 8) (TNF-alpha production; LPS 5×10^−5 μg/ml, 100,000 PBMC, 24 h, ELISA): inhibited the secretion

SMILES: C[C@@H]1C[C@H]2[C@@H]3CCC4=CC(=O)C=C[C@]4(C)[C@@]3(F)[C@@H](O)C[C@]2(C)[C@@]1(O)C(=O)CO [dexamethasone, reference compound]
- IC50 (TNF-alpha production; LPS-stimulated human PBMC, unit from the IC50 definition, read-out: IC50, concentration which inhibits TNF-α secretion by 50%): 500 µM
